# Patent publication US7172879B2, “Detection of sphingosine kinase activity and sphingosine kinase agonist or antagonist activity” (Johnson & Johnson Pharmaceutical Research & Development LLP, priority 1997, dated 2007)
# How the values were obtained:
# Type in all cases: cell-based, human
# sphingosine kinase = test: Sphingosine kinase activity in cytosolic fractions of treated HUVECs
# Protocol: (§1) HUVECs were labelled with [^3H]sphingomyelin was measured at the desired time point of TNFα treatment. The unlabelled cells were treated with HDL and/or TNFα as indicated, cells were lysed to measure ceramide levels and sphingosine kinase activity, respectively. The cells were permeabilized to measure the production of Sph-1-P in vivo.
# (§2) To measure sphingomyelin, the HUVECs were labeled with [^3H]serine (5 μCi/ml) for 48 h and preincubated with or without HDL for another 6 h. The cells were then washed three times and incubated for additional 2 h in the presence or absence of HDL. […] Sphingomyelin spots were visualized by fluorography, quantitated by scintillation spectrometry, and normalized by radioactivity recovered in total cellular lipids. […] To measure ceramide levels, cellular ceramide was extracted and quantified with the diacylglycerol kinase reaction (Kolesnick, 1991; Hannun & Bell, 1993). Sphingosine kinase activity was measured in vitro as previously described with some modification (Mattie et al., 1994; Ghosh et al., 1994; Choi et al., 1996). […] Sphingosine kinase activity was measured by incubating the supernatant with […] sphingosine-BSA complex and [γ^32P]ATP (1 mM, 5 μCi/ml) for 15 min at 37° C. […] Radioactivity of the spot corresponding to Sph-1-P was quantified using Phosphoimager system. […]
# sphingomyelin = test: Sphingomyelin hydrolysis in labelled HUVECs; details: within 30 min of TNFα stimulation
# Protocol: as §1, §2
# ceramide = test: Cellular ceramide levels in HUVECs, diacylglycerol kinase reaction; details: peak at 30 min after TNFα treatment
# Protocol: as §1, §2
# ERK = ERK activity in HUVECs, immunoprecipitation and MBP substrate; details: for stimulation of ERK activities: 30 min treatment
# Protocol: After the cells were treated with an agent for 30 min, ERK activities were assayed with […] basic protein (MBP) as substrate after immunoprecipitation with antibodies against p42/p44^MAPK (Berra et al. 1995; Li et al., 1996; Lee et al., 1997). The kinase reaction products were separated on 10% SDS-polyacrylamide gels. Bar graph depicting ERK activities were quantified by Phosphoimager. NF-κB binding activity was measured by electrophoretic mobility shift assay after 30 min treatment as indicated.
# VCAM-1 = test: Cell-surface expression of VCAM-1 by HUVECs, flow cytometry
# Protocol: (§3) Confluent monolayers of HUVECs were preincubated with or without HDL that was isolated as the fraction of density 1.13˜1.21 g/ml from human plasma at a concentration of 1 mg/ml of apoA-1. After 16-h preincubation, the cells were treated with TNFα (100 U/ml). Following 4-h treatment of TNFα, the cell-surface expression of VCAM-1 and E-selectin was measured by using flow cytometry.
# (§4) HUVECs were treated with an increasing concentration of C2-ceramide with or without TNF α(100 U/ml), or an increasing concentration of Sph-1-P for 4 h. The cell-surface expression of VCAM-1 or E-selectin was measured by flow cytometry. Effect of sphingosine kinase inhibitor (DMS) on the expression of VCAM-1 and E-selectin. The cells were treated with a vehicle (Nil), DMS (5 μM), Sph-1-P (5 μM), C2-ceramide (10 μM) or TNFα (100 U/ml) for 4 h, then measure VCAM-1 or E-selectin expression. Effect of agents on E-selectin mRNA levels and the comparison between the effect of HDL and DMS. After the indicated treatment for 4 h, E-selectin mRNA levels were measured by Northern blotting assay. Results shown in (D) are representative of three similar experiments.
# E-selectin = test: Cell-surface expression of E-selectin by HUVECs, flow cytometry
# Protocol: as §3, §4
# E-selectin mRNA = E-selectin mRNA levels in HUVECs, Northern blotting; details: 4 h treatment
# Protocol: as §4
# Total RNA was prepared from HUVECs that was treated with the indicated agents for 4 h. Equal aliquots of total RNA (12 μg) were electrophoresed in a 1% formaldehyde gel and transferred to nylon membrane. The blots were hybridized with α^=P-labeled E-selection cDNA probe. The mRNA levels of E-selectin were quantified by Phosphoimager and normalised to radiolabeled GAPDH probe.
# NF-κB = NF-κB binding activity in HUVEC nuclear extracts, electrophoretic mobility shift assay; details: HUVECs, 30 min treatment
# Protocol: After the cells were treated with an agent for 30 min, ERK activities were assayed with mycline basic protein (MBP) as substrate after immunoprecipitation with antibodies against p42/p44^MAPK (Berra et al. 1995; Li et al., 1996; Lee et al., 1997). The kinase reaction products were separated on 10% SDS-polyacrylamide gels. Bar graph depicting ERK activities were quantified by Phosphoimager. NF-κB binding activity was measured by electrophoretic mobility shift assay after 30 min treatment as indicated. The specific NF-κB binding complexes were identified by the super-shift gel assay with anti-p50 and anti-p65 antibodies and by competition analyses with the addition of a 50-fold molar excess of unlabelled NF-κB oligonucleotides.
# To measure the NF-κB binding activity, electrophoretic mobility-shift assays were performed. Nuclear extracts were prepared from HUVECs treated for 30 min with vehicle or the indicated agents. The double-stranded oligonucleotides used as a probe in these experiements included 5′-[…]-3′ (SEQ ID NO: 1) which contains a consensus NF-κB binding site in E-selection promoter that is underlined. Gel mobility shift of a consensus NF-κB oligonucleotide was performed by incubating ^32P-labelled NF-κB probe with […] of nuclear proteins. The Sph-1-P induced formation of NF-κB specific complexes were similar us that induced by TNFα. […]
# Sph-1-P formation = Sph-1-P formation in permeabilized HUVECs; details: endothelial cells; same concentration of DMS (5 μM)
# Protocol: as §1, §2
# [1] = at 51 μM, compared with 100 U/ml TNF-α
# [2] = HUVECs, TNFα 100 U/ml, 4 h, flow cytometry
compound,measurement,setting,value
TNFα,"cytosolic sphingosine kinase activity, maximum, % of basal","sphingosine kinase; HUVECs, within 5 min, p<0.01",165±13%
same,"cellular sphingomyelin content, % of control",sphingomyelin,40%
same,increase of cellular ceramide levels,ceramide,approximately 2 fold
same,stimulation of ERK activities,ERK,approximately equipotent
"CCCCCCCCCCCCC/C=C/[C@@H](O)[C@@H](N)COP(=O)(O)O [Sph-1-P, sphingosine-1-phosphate]","induction of VCAM-1, level reached",VCAM-1; [1],approximately equivalent to 100 U/ml TNF-α
same,"induction of E-selectin, level reached",E-selectin; [1],approximately equivalent to 100 U/ml TNF-α
same,induction of E-selectin mRNA,E-selectin mRNA,induction of E-selectin mRNA
same,stimulation of ERK activities,ERK,approximately equipotent
same,induction of nuclear NF-κB accumulation,NF-κB,significant nuclear NF-κB accumulation
"N,N-dimethylsphingosine [DMS]",effect on Sph-1-P induced adhesion protein expression (VCAM-1),"VCAM-1; HUVECs, Sph-1-P 5 μM, 4 h",did not prevent
same,effect on Sph-1-P induced adhesion protein expression (E-selectin),"E-selectin; HUVECs, Sph-1-P 5 μM, 4 h",did not prevent
same,inhibition of sphingosine kinase activity induced either by TNF-α or PMA,"sphingosine kinase; endothelial cells, same concentration of DMS (5 μM)",> 90%
same,inhibition of Sph-1-P formation induced either by TNF-α or PMA,Sph-1-P formation,> 90%
same,inhibition of TNFα-activated ERK,"ERK; 30 min, p<0.02",50%
same,inhibition of Sph-1-P induced activation of NF-κB,NF-κB,did not inhibit
CCCCCCCCCCCCC/C=C/[C@@H](O)[C@H](CO)NC(C)=O [C2-ceramide],inhibition of TNFα-induced expression of VCAM-1,VCAM-1; [2],> 60%
same,inhibition of TNFα-induced expression of E-selectin,E-selectin; [2],> 60%
same,stimulation of ERK activities,ERK,did not
